Laboratory results: the supplement of paper PMC10307832

Compound: COc1cccc2c1C(=O)c1c(O)c3c(c(O)c1C2=O)C[C@@](O)(C(=O)CO)C[C@@H]3O[C@H]1C[C@H](N)[C@H](O)[C@H](C)O1 [Doxorubicin] + COc1cc2c(Oc3ccc(NC(=O)C4(C(=O)Nc5ccc(F)cc5)CC4)cc3F)ccnc2cc1OCCCN1CCOCC1 [Foretinib] (partner 0.25 µM)
Test: relative viability (nuclei count vs DMSO), 5 days (fraction); higher = more cells survive
Details: first compound 0.001 µM
Method in brief: (§1)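 Relative viability was taken as the ratio of nuclei in treated wells to nuclei in vehicle wells. Lung cancer cell lines in 1536-well plates received compounds by pin tool one day after seeding, either one drug alone or a fixed anchor-drug dose plus five library-drug doses (not always all listed) in √10 steps. Nuclei were counted on 4× images after 5 days of treatment, and values are medians of duplicate plates.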

Cell Line	relative viability
SW 900	0.929
NCI-H650	0.93
NCI-H1299	1.1
NCI-H1563	0.876
LCLC-103H	0.767
ABC-1	1.48

Same assay, conditions: first compound 0.003162 µM

Cell Line	relative viability
NCI-H2342	1.08
NCI-H1623	0.815
RERF-LC-KJ	0.944
NCI-H1651	0.929
EBC-1	0.1
NCI-H1734	0.989
NCI-H661	1
Calu-6	1.01
NCI-H1703	0.304
NCI-H727	1.22
NCI-H358	0.737
IA-LM	1.13
A549	1.1
SW 900	1.06
NCI-H650	0.965
NCI-H1299	1.11
NCI-H1563	0.878
LCLC-103H	0.82
ABC-1	1.13

Same assay, conditions: first compound 0.01 µM

Cell Line	relative viability
NCI-H2342	1.06
NCI-H1623	0.895
RERF-LC-KJ	0.81
NCI-H1651	0.737
EBC-1	0.0884
NCI-H1734	0.934
NCI-H661	0.954
Calu-6	0.828
NCI-H1703	0.3
NCI-H727	1.03
NCI-H358	0.341
IA-LM	1.2
A549	0.927
SW 900	0.727
NCI-H650	1.08
NCI-H1299	1.1
NCI-H1563	0.728
LCLC-103H	0.786
ABC-1	1.02

Same assay, conditions: first compound 0.03162 µM

Cell Line	relative viability
NCI-H2342	0.791
NCI-H1623	0.798
RERF-LC-KJ	0.761
NCI-H1651	0.48
EBC-1	0.0952
NCI-H1734	0.68
NCI-H661	0.826
Calu-6	0.619
NCI-H727	0.725
NCI-H358	0.151
IA-LM	1.1
A549	0.684
SW 900	0.727
NCI-H650	0.834
NCI-H1299	1.16
NCI-H1563	0.58
LCLC-103H	0.66
ABC-1	0.676

Same assay, conditions: first compound 0.1 µM

Cell Line	relative viability
NCI-H2342	1.17
NCI-H1623	0.78
RERF-LC-KJ	0.867
NCI-H1651	0.222
EBC-1	0.0885
NCI-H1734	0.769
NCI-H661	0.542
Calu-6	0.362
NCI-H1703	0.24
NCI-H727	1.05
NCI-H358	0.122
IA-LM	1.06
A549	0.29
SW 900	0.958
NCI-H650	0.954
NCI-H1299	1.05
NCI-H1563	0.502
LCLC-103H	0.758
ABC-1	0.339

Compound: COC1=C(C=C(C=C1)C2=CC3=NC=CN3C(=N2)NC4=C(C=CC=N4)C(=O)N)OC [BAY61-3606] + CC1(C)CCC(c2ccc(Cl)cc2)=C(CN2CCN(c3ccc(C(=O)NS(=O)(=O)c4ccc(N[C@H](CCN5CCOCC5)CSc5ccccc5)c(S(=O)(=O)C(F)(F)F)c4)cc3)CC2)C1 [Navitoclax] (partner 0.5 µM)
Test: as above
Details: first compound 0.02 µM
Method in brief: as §1

Cell Line	relative viability
RERF-LC-KJ	0.759
NCI-H1651	1.21
EBC-1	0.421
NCI-H1734	0.904
Calu-6	0.84
HCC-44	0.935
NCI-H1703	1.47
NCI-H727	0.45
IA-LM	0.812
A549	1.24
NCI-H1299	1.05
NCI-H1792	0.663

Same assay, conditions: first compound 0.06325 µM

Cell Line	relative viability
RERF-LC-KJ	0.9
NCI-H1651	1.09
EBC-1	0.362
NCI-H1734	0.727
Calu-6	0.981
HCC-44	0.903
NCI-H1703	0.859
NCI-H727	0.512
A549	1.14
NCI-H1299	1.06
NCI-H1792	0.637

Same assay, conditions: first compound 0.2 µM

Cell Line	relative viability
RERF-LC-KJ	0.975
NCI-H1651	0.964
EBC-1	0.525
NCI-H1734	0.786
Calu-6	0.799
HCC-44	1.01
NCI-H1703	0.954
NCI-H727	0.419
IA-LM	0.827
A549	1.33
NCI-H1299	1.05
NCI-H1792	0.646

Same assay, conditions: first compound 0.6325 µM

Cell Line	relative viability
RERF-LC-KJ	0.83
NCI-H1651	1.17
EBC-1	0.504
NCI-H1734	0.829
Calu-6	0.788
HCC-44	1.13
NCI-H1703	1.08
NCI-H727	0.525
IA-LM	0.793
A549	1.22
NCI-H1299	1.07
NCI-H1792	0.596

Same assay, conditions: first compound 2 µM

Cell Line	relative viability
RERF-LC-KJ	0.876
NCI-H1651	0.909
EBC-1	0.281
NCI-H1734	0.529
Calu-6	0.607
HCC-44	0.816
NCI-H1703	0.475
NCI-H727	0.33
IA-LM	0.725
A549	0.916
NCI-H1299	1.05
NCI-H1792	0.696
